Results published in US20260209193A1, “NOVEL INHIBITORS OF DNA DAMAGE RESPONSES FOR CANCER THERAPY” (The Regents of the University of California, priority 2022, published 2026).

Key:
ATR = target: T1, ATR (Homo sapiens, UniProt Q13535); assay: ATR-mediated signaling: phosphorylation of Rad17 Ser 645 and CHK1 Ser 345 in cells; type: cell-based; settings: for ATR inhibition potency relative to JC099 (OLA- or UV-induced phosphorylation of Rad17 and CHK1): compared to JC099
T1 construct: endogenous in cells; host or cells: PC3, C4-2B/MR, SUM149PT-BRCA1rev, UWB1.289+BRCA1, MDA-MB-231
Method: PARP inhibitor-resistant cells are increasingly dependent on ATR for survival, and ATR inhibition disrupts restored HR and fork protection pathways in PARP inhibitor resistant BRCA-deficient cancer cells. For ATR kinase in vitro assays, ATR was immunoprecipitated with 3 μg of anti-ATR antibody (Bethyl Laboratories, A300-137A) from 1 mg of cell lysate. […] The IC50 was determined by the enzyme profiling service of Eurofins Cerep (France). […] The phosphorylation of CHK1 at Ser 345 sites was used as a bio-marker of ATR-mediated signaling pathway. The phosphorylation of Rad17 at Ser 645, which is a substrate of ATR, was also examined.
ATR inhibition was assessed in C4-2B/MR cells. Considering ATM is a homologous protein of ATR, we also detected the effect of JC046 analogs on the phosphorylation of KAP1 at Ser 824 and CHK2 at Thr 68 sites, which were used as markers of ATM signaling pathway.

PARP1 = target: T2, PARP1 (Homo sapiens, UniProt P09874); assay: PARP1 trapping, chromatin fractionation (chromatin-bound fraction); type: cell-based; settings: PC3 cells
T2 construct: endogenous in cells; host or cells: PC3
Source text: The trapped PARP1 forms a toxic lesion and stalls the progress of replication forks. The replication fork collapses in BRCA1/2-deficient cancer cells, and then results in cell death. […] Six cancer cell lines were used in this assay, including two breast cancer cell lines, BRCA1-mutunt SUM149PT-BRCA1mut and SUM149PT-BRCA1rev where deleterious BRCA1 mutation is reverted to form a functional BRCA1, two ovarian cancer cell lines, BRCA1-null UWB1.289 and UWB1.289+BRCA1, a stable cell line in which wild-type BRCA1 function has been restored, and two prostate cancer cell lines, enzalutamide resistant C4-2B/MR which is homologous recombination (HR)-deficient due to Rad51 mutation, and enzalutamide insensitive PC3 which is HR-proficient.

T1 sequence (Q13535 whole entry): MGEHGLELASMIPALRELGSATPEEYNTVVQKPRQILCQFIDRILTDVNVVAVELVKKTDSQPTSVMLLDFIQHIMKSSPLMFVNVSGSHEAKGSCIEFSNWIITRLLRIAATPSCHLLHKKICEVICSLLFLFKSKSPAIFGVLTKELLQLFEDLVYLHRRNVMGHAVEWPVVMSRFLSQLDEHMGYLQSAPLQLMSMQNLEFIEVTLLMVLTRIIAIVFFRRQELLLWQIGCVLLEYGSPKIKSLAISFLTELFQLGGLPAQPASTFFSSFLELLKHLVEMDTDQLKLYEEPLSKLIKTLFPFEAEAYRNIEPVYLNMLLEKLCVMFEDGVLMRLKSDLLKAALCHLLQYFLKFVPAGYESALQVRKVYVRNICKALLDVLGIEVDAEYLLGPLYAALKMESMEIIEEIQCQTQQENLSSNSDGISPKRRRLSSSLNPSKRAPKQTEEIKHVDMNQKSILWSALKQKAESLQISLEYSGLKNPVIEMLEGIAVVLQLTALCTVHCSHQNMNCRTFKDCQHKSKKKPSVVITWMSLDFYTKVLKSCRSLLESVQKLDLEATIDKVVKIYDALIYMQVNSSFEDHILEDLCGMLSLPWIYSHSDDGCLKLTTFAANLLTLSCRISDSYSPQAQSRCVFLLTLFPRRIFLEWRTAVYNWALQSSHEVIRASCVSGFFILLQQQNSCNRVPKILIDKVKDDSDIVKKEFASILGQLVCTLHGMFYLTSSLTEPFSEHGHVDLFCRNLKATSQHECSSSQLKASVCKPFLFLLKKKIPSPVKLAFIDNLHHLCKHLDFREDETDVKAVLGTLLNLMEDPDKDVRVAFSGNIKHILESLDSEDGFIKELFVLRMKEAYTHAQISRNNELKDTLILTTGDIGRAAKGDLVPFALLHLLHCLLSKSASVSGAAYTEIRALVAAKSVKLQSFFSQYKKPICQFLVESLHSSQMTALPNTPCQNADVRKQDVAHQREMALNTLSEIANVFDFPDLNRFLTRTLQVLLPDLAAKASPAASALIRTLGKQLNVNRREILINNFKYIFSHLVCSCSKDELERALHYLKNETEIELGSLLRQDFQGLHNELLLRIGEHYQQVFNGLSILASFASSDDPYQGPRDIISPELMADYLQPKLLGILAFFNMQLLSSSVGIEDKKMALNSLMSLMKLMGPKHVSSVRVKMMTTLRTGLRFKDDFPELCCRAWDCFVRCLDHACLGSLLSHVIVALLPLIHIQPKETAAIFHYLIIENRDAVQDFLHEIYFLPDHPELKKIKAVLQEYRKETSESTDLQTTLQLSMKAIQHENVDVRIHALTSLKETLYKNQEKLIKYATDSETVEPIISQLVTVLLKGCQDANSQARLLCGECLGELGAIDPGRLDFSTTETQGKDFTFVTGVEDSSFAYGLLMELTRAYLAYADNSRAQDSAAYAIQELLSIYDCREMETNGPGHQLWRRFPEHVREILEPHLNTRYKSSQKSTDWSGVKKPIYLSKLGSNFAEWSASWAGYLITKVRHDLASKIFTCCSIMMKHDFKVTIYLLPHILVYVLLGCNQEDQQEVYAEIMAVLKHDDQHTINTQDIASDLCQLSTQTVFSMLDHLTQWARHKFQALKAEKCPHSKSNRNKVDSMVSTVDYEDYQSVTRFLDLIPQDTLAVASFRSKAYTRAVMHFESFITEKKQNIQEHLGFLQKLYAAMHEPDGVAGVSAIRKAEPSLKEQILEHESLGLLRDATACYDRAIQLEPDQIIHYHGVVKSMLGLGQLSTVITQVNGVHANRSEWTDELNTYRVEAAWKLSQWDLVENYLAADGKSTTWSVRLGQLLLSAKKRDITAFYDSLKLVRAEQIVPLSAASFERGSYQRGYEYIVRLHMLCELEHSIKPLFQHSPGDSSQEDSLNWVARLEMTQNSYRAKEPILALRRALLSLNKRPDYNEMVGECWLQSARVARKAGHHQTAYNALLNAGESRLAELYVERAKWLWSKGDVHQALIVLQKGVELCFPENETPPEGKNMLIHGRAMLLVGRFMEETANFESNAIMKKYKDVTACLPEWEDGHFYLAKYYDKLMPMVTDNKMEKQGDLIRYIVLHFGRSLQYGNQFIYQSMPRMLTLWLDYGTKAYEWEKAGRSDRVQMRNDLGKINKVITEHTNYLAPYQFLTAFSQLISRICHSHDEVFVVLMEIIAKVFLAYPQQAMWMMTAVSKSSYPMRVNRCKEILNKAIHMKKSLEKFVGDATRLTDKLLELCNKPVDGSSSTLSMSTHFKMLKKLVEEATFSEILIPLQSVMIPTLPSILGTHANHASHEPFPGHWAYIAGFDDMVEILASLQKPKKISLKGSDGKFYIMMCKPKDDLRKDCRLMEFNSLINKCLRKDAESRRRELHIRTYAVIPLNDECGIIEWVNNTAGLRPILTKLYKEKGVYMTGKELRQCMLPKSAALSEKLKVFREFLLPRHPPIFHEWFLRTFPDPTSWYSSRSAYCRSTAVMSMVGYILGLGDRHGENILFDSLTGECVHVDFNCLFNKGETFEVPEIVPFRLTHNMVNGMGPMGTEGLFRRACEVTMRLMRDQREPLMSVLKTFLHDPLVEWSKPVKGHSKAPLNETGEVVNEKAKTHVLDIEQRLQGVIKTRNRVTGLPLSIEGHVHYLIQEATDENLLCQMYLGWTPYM
T1 sequence (Q8WXE1 whole entry partner): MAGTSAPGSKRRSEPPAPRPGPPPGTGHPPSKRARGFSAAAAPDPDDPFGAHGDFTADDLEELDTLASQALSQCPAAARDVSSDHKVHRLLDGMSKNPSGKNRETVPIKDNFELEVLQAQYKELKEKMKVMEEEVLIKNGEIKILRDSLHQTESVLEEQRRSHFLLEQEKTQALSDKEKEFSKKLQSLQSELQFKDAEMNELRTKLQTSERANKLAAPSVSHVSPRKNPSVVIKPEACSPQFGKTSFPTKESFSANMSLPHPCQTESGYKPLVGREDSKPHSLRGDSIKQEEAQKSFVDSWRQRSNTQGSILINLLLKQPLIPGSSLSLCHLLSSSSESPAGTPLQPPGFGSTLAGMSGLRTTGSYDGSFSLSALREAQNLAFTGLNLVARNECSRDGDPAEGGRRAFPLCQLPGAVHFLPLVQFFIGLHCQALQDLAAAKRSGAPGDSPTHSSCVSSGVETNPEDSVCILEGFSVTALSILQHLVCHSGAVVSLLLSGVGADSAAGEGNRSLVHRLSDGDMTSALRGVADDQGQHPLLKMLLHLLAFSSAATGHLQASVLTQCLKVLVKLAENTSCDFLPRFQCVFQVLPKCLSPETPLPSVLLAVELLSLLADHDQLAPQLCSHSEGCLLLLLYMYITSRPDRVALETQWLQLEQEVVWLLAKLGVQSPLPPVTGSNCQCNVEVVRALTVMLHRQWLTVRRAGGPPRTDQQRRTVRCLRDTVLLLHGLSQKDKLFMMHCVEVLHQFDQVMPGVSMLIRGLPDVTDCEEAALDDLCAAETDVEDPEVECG
T2 sequence (P09874 whole entry, species assumed): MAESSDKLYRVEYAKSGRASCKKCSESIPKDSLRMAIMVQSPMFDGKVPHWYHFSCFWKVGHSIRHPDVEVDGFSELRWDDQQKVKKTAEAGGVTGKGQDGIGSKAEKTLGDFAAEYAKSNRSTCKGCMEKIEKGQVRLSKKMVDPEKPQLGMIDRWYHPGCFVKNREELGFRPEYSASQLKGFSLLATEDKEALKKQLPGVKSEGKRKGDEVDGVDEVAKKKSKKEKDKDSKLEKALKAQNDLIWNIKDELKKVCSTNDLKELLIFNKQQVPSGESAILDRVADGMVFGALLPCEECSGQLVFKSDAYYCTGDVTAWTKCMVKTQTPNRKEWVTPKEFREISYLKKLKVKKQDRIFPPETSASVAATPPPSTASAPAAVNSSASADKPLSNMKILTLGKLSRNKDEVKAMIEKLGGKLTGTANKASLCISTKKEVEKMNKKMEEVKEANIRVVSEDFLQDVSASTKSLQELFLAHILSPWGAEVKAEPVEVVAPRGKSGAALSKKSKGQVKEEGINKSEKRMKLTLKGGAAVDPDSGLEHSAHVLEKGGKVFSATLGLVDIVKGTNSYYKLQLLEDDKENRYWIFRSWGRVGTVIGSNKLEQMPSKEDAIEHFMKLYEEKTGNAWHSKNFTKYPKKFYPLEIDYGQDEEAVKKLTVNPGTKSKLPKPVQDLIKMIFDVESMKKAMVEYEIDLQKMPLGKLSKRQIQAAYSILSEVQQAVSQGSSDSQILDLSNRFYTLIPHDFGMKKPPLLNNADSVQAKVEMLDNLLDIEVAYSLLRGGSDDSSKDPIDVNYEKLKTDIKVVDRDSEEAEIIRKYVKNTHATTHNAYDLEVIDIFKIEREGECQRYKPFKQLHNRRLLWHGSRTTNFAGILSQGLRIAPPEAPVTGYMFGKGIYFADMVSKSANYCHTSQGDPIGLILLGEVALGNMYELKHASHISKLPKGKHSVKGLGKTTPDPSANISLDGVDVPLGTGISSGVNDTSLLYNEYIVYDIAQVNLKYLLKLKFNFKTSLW

ATR inhibition potency relative to JC099 (OLA- or UV-induced phosphorylation of Rad17 and CHK1) (ATR) | Compound | other results
less ATR inhibition potencies | O=C1/C(=C/c2ccc(F)c(F)c2)CC(NC(=O)c2ccc(OCCN3CCCCC3)nc2)C/C1=C\c1ccc(F)c(F)c1 (stereo not shown) [JCS116, N-(3,5-Bis((E)-3,4-difluorobenzylidene)-4-oxocyclohexyl)-6-(2-(piperidin-1-yl)ethoxy)nicotinamide] | 
greater ATR inhibition potential | COCCN(CCOC)CCOc1ccc(C(=O)NC2C/C(=C\c3cc(F)c(F)c(OC)c3)C(=O)/C(=C/c3cc(F)c(F)c(OC)c3)C2)cc1 (stereo not shown) [JCS153, N-(3,5-Bis((E)-3,4-difluoro-5-methoxybenzylidene)-4-oxocyclohexyl)-4-(2-(bis(2-methoxyethyl)ami-no)ethoxy)benzamide] | 
less ATR inhibition potencies | CCN1CCC[C@H]1CNc1ccc(C(=O)NC2C/C(=C\c3ccc(F)c(F)c3F)C(=O)/C(=C/c3ccc(F)c(F)c3F)C2)cc1 (stereo partly drawn) [JCS157, 4-((((S)-1-Ethylpyrrolidin-2-yl)methyl)amino)-N-(4-oxo-3,5-bis((E)-2,3,4-trifluorobenzylidene)-cyclohexyl)benzamide] | 

The remaining lines, values behind:

Compound | ATR inhibition potency relative to JC099 (OLA- or UV-induced phosphorylation of Rad17 and CHK1) (ATR) | other results
O=C(CCN1CCCC1)NC1C/C(=C\c2ccc(F)c(F)c2)C(=O)/C(=C/c2ccc(F)c(F)c2)C1 (stereo not shown) [JCS007, N-(3,5-bis((E)-3,4-difluorobenzylidene)-4-oxocyclohexyl)-3-(pyrrolidin-1-yl)propanamide] |  | Olaparib induced phosphorylation of Rad17 at Ser 645 and CHK1 at Ser 345 (ATR; 1 μM and 2 μM, PC3 and MDA-MB-231 cells): inhibited
CCN1CCC[C@@H]1CNc1ccc(C(=O)NC2C/C(=C\c3ccc(F)c(F)c3)C(=O)/C(=C/c3ccc(F)c(F)c3)C2)cc1 (stereo partly drawn) [JCS066, N-(3,5-Bis((E)-3,4-difluorobenzylidene)-4-oxocyclohexyl)-4-((((R)-1-ethylpyrrolidin-2-yl)methyl)-amino)benzamide] | greater ATR inhibition potential | 
N#Cc1cc(NCCN2CCCC2)ccc1C(=O)NC1C/C(=C\c2ccc(F)c(F)c2)C(=O)/C(=C/c2ccc(F)c(F)c2)C1 (stereo not shown) [JCS0091] | their potencies were close to JC099 | 
O=C1/C(=C/c2ccc(F)c(F)c2)CC(NC(=O)c2cnc(NCCN3CCCC3)c([N+](=O)[O-])c2)C/C1=C\c1ccc(F)c(F)c1 (stereo not shown) [JCS092, N-(3,5-Bis((E)-3,4-difluorobenzylidene)-4-oxocyclohexyl)-5-nitro-6-((2-(pyrrolidin-1-yl)ethyl)ami-no)nicotinamide] | their potencies were close to JC099 | 
O=C1/C(=C/c2ccc(F)c(F)c2)CC(NC(=O)c2cnc(NCCN3CCCC3)cn2)C/C1=C\c1ccc(F)c(F)c1 (stereo not shown) [JCS093, N-(3,5-Bis((E)-3,4-difluorobenzylidene)-4-oxocyclohexyl)-5-((2-(pyrrolidin-1-yl)ethyl)amino)pyr-azine-2-carboxamide] | less ATR inhibition potencies | 
CCN(CC)CCOc1ccc(-c2ccc(C(=O)NC3C/C(=C\c4ccc(F)c(F)c4)C(=O)/C(=C/c4ccc(F)c(F)c4)C3)cc2)cc1 (stereo not shown) [JCS095, N-(3,5-Bis((E)-3,4-difluorobenzylidene)-4-oxocyclohexyl)-4′-(2-(diethylamino)ethoxy)-[1,1′-biphenyl]-4-carboxamide] | less ATR inhibition potencies | 
O=C1/C(=C/c2ccc(F)c(F)c2)CC(NC(=O)c2ccc3cc(OCCN4CCCCC4)ccc3c2)C/C1=C\c1ccc(F)c(F)c1 (stereo not shown) [JCS097, N-(3,5-Bis((E)-3,4-difluorobenzylidene)-4-oxocyclohexyl)-6-(2-(piperidin-1-yl)ethoxy)-2-naphth-amide] | less ATR inhibition potencies | 
CCN(CC)CCOc1ccc2cc(C(=O)NC3C/C(=C\c4ccc(F)c(F)c4)C(=O)/C(=C/c4ccc(F)c(F)c4)C3)ccc2c1 (stereo not shown) [JCS098, N-(3,5-Bis((E)-3,4-difluorobenzylidene)-4-oxocyclohexyl)-6-(2-(diethylamino)ethoxy)-2-naphtha-mide] | less ATR inhibition potencies | 
O=C1/C(=C/c2ccc(F)c(F)c2)CC(NC(=O)c2ccc(OCCN3CCCCC3)c(OCc3ccccc3)c2)C/C1=C\c1ccc(F)c(F)c1 (stereo not shown) [JCS102, 3-(Benzyloxy)-N-(3,5-bis((E)-3,4-difluorobenzylidene)-4-oxocyclohexyl)-4-(2-(piperidin-1-yl)eth-oxy)benzamide] |  | PARP1-trapping potency relative to JC099 (PARP1 in the chromatin-bound fraction) (PARP1): higher potency in PARP1-trapping
CC(=O)c1cc(C(=O)NC2C/C(=C\c3ccc(F)c(F)c3)C(=O)/C(=C/c3ccc(F)c(F)c3)C2)ccc1OCCN1CCCCC1 (stereo not shown) [JCS103, 3-Acetyl-N-(3,5-bis((E)-3,4-difluorobenzylidene)-4-oxocyclohexyl)-4-(2-(piperidin-1-yl)ethoxy)-benzamide] |  | PARP1-trapping potency relative to JC099 (PARP1 in the chromatin-bound fraction) (PARP1): higher potency in PARP1-trapping
CCN(CC)CCOc1ccc(C(=O)NC2C/C(=C\c3ccc(F)c(F)c3)C(=O)/C(=C/c3ccc(F)c(F)c3)C2)cc1C(C)=O (stereo not shown) [JCS104, 3-Acetyl-N-(3,5-bis((E)-3,4-difluorobenzylidene)-4-oxocyclohexyl)-4-(2-(diethylamino)ethoxy)-benzamide] | less ATR inhibition potencies | 
CCN(CC)CCOc1ccc(C(=O)NC2C/C(=C\c3ccc(F)c(F)c3)C(=O)/C(=C/c3ccc(F)c(F)c3)C2)c(C)c1 (stereo not shown) [JCS112, N-(3,5-Bis((E)-3,4-difluorobenzylidene)-4-oxocyclohexyl)-4-(2-(diethylamino)ethoxy)-2-methyl-benzamide] | less ATR inhibition potencies | 
CCN(CC)CCOc1ccc(C(=O)NC2C/C(=C\c3ccc(F)c(F)c3)C(=O)/C(=C/c3ccc(F)c(F)c3)C2)cn1 (stereo not shown) [JCS115, N-(3,5-Bis((E)-3,4-difluorobenzylidene)-4-oxocyclohexyl)-6-(2-(diethylamino)ethoxy)nicotinamide] | less ATR inhibition potencies | 
CCN(CC)CCOc1ccc(C(=O)NC2C/C(=C\c3ccc(F)c(F)c3)C(=O)/C(=C/c3ccc(F)c(F)c3)C2)nc1 (stereo not shown) [JCS131, N-(3,5-Bis((E)-3,4-difluorobenzylidene)-4-oxocyclohexyl)-5-(2-(diethylamino)ethoxy)picolinamide] |  | PARP1-trapping potency relative to JC099 (PARP1 in the chromatin-bound fraction) (PARP1): higher potency in PARP1-trapping
O=C1/C(=C/c2ccc(F)c(F)c2)CC(NC(=O)c2ccc(OCCN3CCN4CCCC4C3)cc2)C/C1=C\c1ccc(F)c(F)c1 (stereo not shown) [JCS135, N-(3,5-Bis((E)-3,4-difluorobenzylidene)-4-oxocyclohexyl)-4-(2-(hexahydropyrrolo[1,2-a]pyrazin-2(1H)-yl)ethoxy)benzamide] |  | PARP1-trapping potency relative to JC099 (PARP1 in the chromatin-bound fraction) (PARP1): higher potency in PARP1-trapping
O=C1/C(=C/c2ccc(F)c(F)c2)CC(NC(=O)c2ccc(OCCN3CC4OCCOC4C3)cc2)C/C1=C\c1ccc(F)c(F)c1 (stereo not shown) [JCS137, N-(3,5-Bis((E)-3,4-difluorobenzylidene)-4-oxocyclohexyl)-4-(2-(hexahydro-6H-[1,4]dioxino[2,3-c]pyrrol-6-yl)ethoxy)benzamide] |  | PARP1-trapping potency relative to JC099 (PARP1 in the chromatin-bound fraction) (PARP1): their potencies were less than JC099
